According to patent US7129230B2, “Method and product for treating cancer in pets” (Nestec S.A., priority 2001, dated 2006):
“Also recorded” adds a separate entry of the source. Read-outs that look alike come from different tables or passages of the source.

Tests used:
[1] = system: murine squamous cell carcinoma (SCC) tumor model; conditions: in vitro and in vivo; cited from earlier work
[2] = system: involucrin in SCC 2/88 cells; test: Cell differentiation: involucrin by SDS-PAGE and Western blot in SCC 2/88 cells; type: cell-based, canine; conditions: post-confluent cells, up to 7 days; for involucrin expression (anti-involucrin reactive bands) compared to vehicle: 10^−7 M; for involucrin expression (anti-involucrin reactive bands): 10^−9 M
Experimental: Cell differentiation. Involucrin was extracted from cultured SCC 2/88 cells grown in 175 cm2 culture flasks (Becton Dickinson, Franklin Lakes, N.J.) for one week. Post confluent cells were treated with either vehicle, 1,25(OH)2D3, EB 1089, or analog V at concentrations 10^−7 M and 10^−9 M for up to 7 days. Cells were washed and released from the culture flask with phosphate buffered saline containing 20 mM EDTA. Cells were disrupted with a Branson sonifier (Branson Ultrasonic Corporation, Danbury, Conn.) at a setting of 6 for 3×30 seconds and centrifuged at 100,000 G for 30 minutes at 10° C. The supernatant (cytosol) was made 10% in glycerol and 62.5 mM in Tris-HCl (pH 6.8) and heated for 10 minutes at 100° C. The denatured proteins were removed by centrifugation at 15,000 G for 15 minutes. Involucrin in the supernatant was collected stored at −70° C. until Western blot analysis was performed.
Extracted proteins (20 μg) were separated by electrophoresis through 7.5 % sodium dodecyl sulfate (SDS)-polyacrylamide gel, and transferred to nitrocellulose membrane with use of a semi-dry transferred technique (Bio-Rad laboratories, Hercules, Calif.). The membrane was then blocked in blocking solution (10% dry milk, 0.05% Tween 20 in phosphate buffered saline) overnight at 4° C. The preblocked membrane was incubated in mouse monoclonal antibody against involucrin (Research Diagnotics Inc., Flanders, N.J.) 1:500 for an hour and extensively washed in PBS (pH 7.4) containing 0.05% Tween 20. The blot was then incubated in goat anti-mouse IgG (horseradish peroxidase) (Bio-Rad laboratories, Hercules, Calif.) 1:500 for an hour. After further washing in phosphate buffered saline containing 0.05% Tween 20, the blot was developed for 1 minute in the LumiGLO Chemiluminescent substrate (Kirkegaard and Perry laboratories, Gaithersburg, Md.), and then exposed to x-ray film for 1–5 seconds. After exposure, the membrane was stripped and incubated with mouse monoclonal anti-β-actin (Sigma, Saint Louis, Mo.) to normalize for protein loading. AlphaImager™ Alpha Innotech Corporation, San Leandro) measured the density of involucrin bands.

[3] = system: thyroid anaplastic carcinoma cell lines; conditions: four thyroid anaplastic carcinoma cell lines; cited from earlier work
[4] = system: PTHrP production in human squamous cell lines; conditions: cited from earlier work
[5] = system: SCC 2/88 cells; test: Growth of SCC 2/88 cells by fluorescence DNA concentration analysis; type: cell-based, canine; conditions: three-day treatment
Source text: Cell culture. […] Each experiment was run in triplicate.

[6] = system: osteosarcoma cell lines; conditions: four canine osteosarcoma cell lines; cited from earlier work
[7] = system: PTHrP production in SCC 2/88 cells; conditions: Merryman et al 1993, cited from earlier work
[8] = system: TGF-β mRNA in SCC 2/88 cells; test: Northern blot analysis of TGF-β mRNA expression in SCC 2/88 cells; type: cell-based, canine; conditions: 10^−7 M, 0, 3, 6, 12 and 24 hrs
[9] = system: human prostate cancer cell line; conditions: cited from earlier work
[10] = system: human and rat liver cancer cell lines; conditions: cited from earlier work
[11] = system: PTHrP mRNA in SCC 2/88 cells; test: Northern blot analysis of PTHrP mRNA expression in SCC 2/88 cells; type: cell-based, canine

Row | Molecule | involucrin expression (anti-involucrin reactive bands) compared to vehicle [2] | involucrin expression (anti-involucrin reactive bands) [2] | cell growth [3] | growth of SCC 2/88 cells (concentration of DNA) ([5]; 10^−7 M) | PTHrP production in SCC 2/88 cells [7] | growth of SCC 2/88 cells (concentration of DNA) ([5]; 10^−9 M) | other results
1 | C=C1/C(=C\C=C2/CCC[C@]3(C)[C@@H]([C@H](C)CCCC(C)(C)O)CC[C@@H]23)C[C@@H](O)C[C@@H]1O [1,25(OH)2D3] | diminished involucrin expression | diminished involucrin expression | diphasic cell growth in three of the four cell lines | inhibit cell proliferation; also recorded: significantly reduced the concentration of DNA | promote PTHrP production | – | antitumor effects [1]: significant antitumor effects; PTHrP production [4]: inhibits PTHrP production; alkaline phosphatase activity [6]: increases alkaline phosphatase activity in one cell line; osteocalcin production [6]: osteocalcin production in two lines; type I collagen production [6]: type I collagen production in three lines; PTHrP production in SCC 2/88 cells ([7]; listed as 1,25-(OH)2D3): stimulates production of parathyroid hormone-related protein; TGF-β mRNA expression compared to vehicle-treated control [8]: did not differ significantly; cell growth and differentiation [9]: inhibits cell growth and promotes differentiation in a dose-dependent manner; anti-proliferative activity [10]: anti-proliferative activity in some human and rat liver cancer cell lines
2 | TGF-β | – | – | – | – | – | – | increase in PTHrP mRNA compared to vehicle-treated control ([11]; TGF-β 1.5 ng/mL, 6, 12 and 24 hr): 5- to 20 fold; increase in PTHrP mRNA compared with vehicle-treated control ([11]; TGF-β, after 24 hr): 2- to 20 fold
3 | C=C1/C(=C\C=C2/CCC[C@]3(C)[C@@H]([C@H](C)OCCC(C)(C)O)CC[C@@H]23)C[C@@H](O)C[C@@H]1O [22-oxacalcitriol] | – | – | dose-dependent inhibition of cell growth in all four of the cell lines | – | – | – | –
4 | C=C1/C(=C\C=C2/CCC[C@]3(C)[C@@H]([C@H](C)/C=C/C=C/C(O)(CC)CC)CC[C@@H]23)C[C@@H](O)C[C@@H]1O [EB 1089, 22,24-diene-24a,26a,27a-trihomo-1α,25-dihydroxyvitamin D3] | more weakly defined than that of the vehicle-treated control; also recorded: diminished involucrin expression; also recorded: weak or substantially absent anti-involucrin reactive bands | diminished involucrin expression; also recorded: diminished levels of involucrin | – | inhibit cell proliferation; also recorded: significantly reduced the concentration of DNA; also recorded: significantly diminished cell growth | promote PTHrP production | inhibits cell growth significantly; also recorded: significantly reduced the concentration of DNA; also recorded: reduced cell growth at a lower confidence level | –
5 | C=C1C(=CC=C2CCCC3(C)C(C(C)CC#CC(C)(C)O)=CCC23)CC(O)CC1O (stereo not drawn) [analog V, 1,25-dihydroxy-16-ene-23-yne-vitamin D] | more weakly defined than that of the vehicle-treated control; also recorded: diminished involucrin expression; also recorded: weak or substantially absent anti-involucrin reactive bands | more intense than those of the other treated groups; also recorded: stronger anti-involucrin reactive band | – | inhibit cell proliferation; also recorded: significantly reduced the concentration of DNA; also recorded: significantly diminished cell growth | promote PTHrP production | no significant inhibition of cell growth | –
